The values below come from ChEMBL document CHEMBL1201862, “PubChem BioAssay data set” (2004).

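Five compound concentrations were applied to cells in 96-well plates for 48 hours; endpoints were derived by simple linear interpolation of the resulting dose-response curve. GI50: concentration for 50% inhibition of growth.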 Calls of active or inactive are those of the source. No stated cut-off is given here; in the data, active = GI50 up to about 1.1 µM and inactive = higher. Where a SMILES comes first, the peptide text is derived from it. The star is where a group is joined. Fmoc = O=C(OCC1c2ccccc2-c2ccccc21)*; OtBu = CC(C)(C)O*

Common to all, as to assay: growth of human tumour cells (NCI), 48 h
Experiment [1] deals with IGROV-1.
In experiment [2] the test system is OVCAR-8.
For experiment [3], the system named is LOX IMVI.
Experiment [4] concerns SF-539.
Experiment [5] concerns HCT-15.
Experiment [6] relates to HCT-116.
Experiment [7] concerns SK-MEL-2.
Experiment [8] concerns K562.
In experiment [9] the test system is SK-MEL-28.
For experiment [10], the system named is SK-OV-3.
Experiment [11] relates to OVCAR-4.
Experiment [12] has as its system RXF 393.
For experiment [13], the system named is ACHN.
For experiment [14], the system named is Hs-578T.
The subject of experiment [15] is SNB-75.
Experiment [16] has as its system EKVX.
Experiment [17] concerns UACC-62.
Experiment [18] deals with MDA-N.
Experiment [19] relates to HL-60.
Experiment [20] relates to A498.

For `COc1cc(C2C3=C(COC3=O)Oc3cc4c(cc32)OCO4)cc(OC)c1O` (stereo not drawn), the GI50 was < 0.0121 µM (active) in experiment [1]; < 0.0152 µM (active) in [2]; < 0.0112 µM (active) in experiment [3]; < 0.01 µM (active) in experiment [4]; 0.0126 µM in experiment [5]; 0.0103 µM (active) in [6]. In addition, the GI50 in experiment [7] was 0.0101 µM (active); in experiment [8], < 0.01 µM (active); in experiment [9], < 0.01 µM (active); in experiment [10], < 0.012 µM (active); in experiment [11], 8.24 µM (inactive); in [12], < 0.01 µM (active). For the same molecule, the GI50 in [13] was < 0.0119 µM (active); in [14], 0.0119 µM (active); in experiment [15] it was < 0.01 µM (active); in [16], 0.0207 µM (active); in [17] it was < 0.01 µM (active); in [18], < 0.01 µM (active). Moreover, the GI50 in experiment [19] is < 0.01 µM (active).
`CSc1ncnc2c1cnn2Cc1cn(CCCCO)nn1`: the GI50 was > 100 µM (inactive) in experiment [1]; > 100 µM (inactive) in [2]; > 100 µM (inactive) in experiment [3]; > 100 µM (inactive) in [4]; over 100 µM in experiment [5]; > 100 µM (inactive) in experiment [6]. Further, the GI50 in experiment [7], in [20], in experiment [8], in [9], in experiment [10] and in experiment [11] was > 100 µM (inactive) throughout. For the same molecule, the GI50 was > 100 µM (inactive) in experiment [12]; > 100 µM (inactive) in experiment [13]; 71.1 µM (inactive) in experiment [14]; > 100 µM (inactive) in [15]; > 100 µM (inactive) in [16]; > 100 µM (inactive) in [17]. Also, in experiment [18], the GI50 is > 100 µM (inactive).
Regarding `CSc1nn(C)cc2nc(C)nc1-2`, the GI50 in experiment [1] is > 100 µM (inactive); in experiment [2], > 100 µM (inactive); in [4], > 100 µM (inactive); in [5], over 100 µM; in experiment [6] it was > 100 µM (inactive); in [7], > 100 µM (inactive). Further, the GI50 in experiment [20], in experiment [8], in experiment [9], in experiment [12], in [13] and in experiment [14] was > 100 µM (inactive) throughout. Further, the GI50 in experiment [15], in experiment [16], in [17], in experiment [18] and in experiment [19] was > 100 µM (inactive) throughout.
In the case of `COc1cc(C(C)=O)cc(C(=O)N(C(C)C)C(C)C)c1[Si](C)(C)C`, the GI50 in experiment [1] is > 100 µM (inactive); in [2] it was > 100 µM (inactive); in experiment [3] it was > 100 µM (inactive); in experiment [4], > 100 µM (inactive); in experiment [5], over 100 µM; in experiment [6], > 100 µM (inactive). The GI50 in [7] was > 100 µM (inactive); in experiment [20], > 100 µM (inactive); in experiment [9], > 100 µM (inactive); in experiment [10] it was 28.9 µM (inactive); in [11], > 100 µM (inactive); in experiment [13], > 100 µM (inactive). The GI50 in [14] is > 100 µM (inactive); in experiment [15], 9.2 µM (inactive); in [17] it was > 100 µM (inactive); in experiment [18] it was > 100 µM (inactive); in experiment [19] it was 24.3 µM (inactive).
`CCCCCCCCCCCCCCCCOP(=O)(O)OCC(N)C(=O)O` (stereo not drawn): the GI50 was 18.4 µM (inactive) in [1]; 25.4 µM (inactive) in experiment [2]; 13.5 µM (inactive) in [3]; 21.3 µM (inactive) in experiment [4]; 27.7 µM in [5]; 12.5 µM (inactive) in experiment [6]. Besides, the GI50 was 19.3 µM (inactive) in experiment [7]; 19.8 µM (inactive) in [20]; 22.8 µM (inactive) in experiment [8]; 43.1 µM (inactive) in [9]; 21.8 µM (inactive) in experiment [10]; 18.7 µM (inactive) in [11]. The GI50 in experiment [12] was 23.8 µM (inactive); in experiment [13], 16.3 µM (inactive); in experiment [14], 16.1 µM (inactive); in [15] it was 25.4 µM (inactive); in [16], 54.1 µM (inactive); in experiment [17] it was 18 µM (inactive). Besides, the GI50 in experiment [18] is 23.5 µM (inactive).
For `CN(CCc1ccccn1)c1ccc2c(c1)C(=O)c1ccccc1-2`, the GI50 is > 100 µM (inactive) in experiment [1]; 99.1 µM (inactive) in experiment [2]; > 100 µM (inactive) in [3]; 23 µM in experiment [5]; > 100 µM (inactive) in experiment [6]; 28.5 µM (inactive) in experiment [7]. Besides, the GI50 in [20] was 35.2 µM (inactive); in experiment [8], 51.8 µM (inactive); in experiment [9], > 100 µM (inactive); in experiment [10], > 100 µM (inactive); in experiment [11] it was 69.5 µM (inactive); in experiment [12] it was > 100 µM (inactive). Besides, the GI50 in [13] was > 100 µM (inactive); in [14], 73.3 µM (inactive); in [15] it was 99.1 µM (inactive); in experiment [16], 18.5 µM (inactive); in [17] it was 46.1 µM (inactive); in [18], 64.9 µM (inactive).
In the case of `CC(C)=CCNc1ncnc2c1ncn2CCC(=O)O`, the GI50 in experiment [1] is > 100 µM (inactive); in experiment [2], > 100 µM (inactive); in experiment [3], > 100 µM (inactive); in experiment [4], > 100 µM (inactive); in experiment [5] it was over 100 µM; in [6] it was > 100 µM (inactive). Also, the GI50 in experiment [20], in [8], in experiment [9], in experiment [10], in experiment [11] and in experiment [12] was > 100 µM (inactive) in each case. Further, the GI50 in experiment [13], in experiment [14], in experiment [15], in [17], in experiment [18] and in [19] was > 100 µM (inactive) each time.
Consider `CC(=O)OCC1OC(n2c(C)c(/N=N/c3ccc(Cl)cc3)c(C)c(C#N)c2=S)C(OC(C)=O)C(OC(C)=O)C1OC(C)=O` (stereo not drawn), for which the GI50 in [1] was 41.8 µM (inactive); in experiment [3], 86.3 µM (inactive); in experiment [4], 44.1 µM (inactive); in [5], over 100 µM; in [6] it was 48.1 µM (inactive); in experiment [7], 34.2 µM (inactive). Also, the GI50 in experiment [8] was > 100 µM (inactive); in experiment [9] it was > 100 µM (inactive); in [10] it was 36.3 µM (inactive); in experiment [11], > 100 µM (inactive); in [12] it was 18.2 µM (inactive); in [13], 58.1 µM (inactive). The GI50 was 21.5 µM (inactive) in experiment [14]; 20.1 µM (inactive) in [15]; 38.4 µM (inactive) in [17]; > 100 µM (inactive) in experiment [18]; > 100 µM (inactive) in experiment [19].
Take `Clc1ccc2c(NCCCC/N=C/c3ccccc3)ccnc2c1`: the GI50 in experiment [1] was 11.8 µM (inactive); in experiment [2], 11.2 µM (inactive); in experiment [3], 13.5 µM (inactive); in experiment [4] it was 11.9 µM (inactive); in experiment [5] it was 17.8 µM; in [6], 6.24 µM (inactive). Besides, the GI50 in experiment [7] was 11.8 µM (inactive); in experiment [20] it was 3.01 µM (inactive); in [8], 5.01 µM (inactive); in [9] it was 15 µM (inactive); in experiment [10], 10.1 µM (inactive); in [11] it was 10.5 µM (inactive). The GI50 was 4.09 µM (inactive) in experiment [12]; 12.5 µM (inactive) in [13]; 11.6 µM (inactive) in experiment [14]; 11.1 µM (inactive) in experiment [15]; 15.5 µM (inactive) in experiment [16]; 11.7 µM (inactive) in experiment [18].
For `O=C(O)C[n+]1cn(NC(=O)Cc2ccccc2)cn1`, the GI50 was > 10 µM (inactive) in [1]; > 10 µM (inactive) in experiment [2]; > 10 µM (inactive) in [3]; > 10 µM (inactive) in experiment [4]; over 10 µM in experiment [5]; > 10 µM (inactive) in experiment [6]. Moreover, the GI50 in [20], in experiment [8], in experiment [9], in experiment [10], in experiment [11] and in experiment [13] was > 10 µM (inactive) in each case. Besides, the GI50 in [14] was 0.158 µM (active); in [15] it was > 10 µM (inactive); in [16] it was 7.16 µM (inactive); in [17] it was 0.664 µM (active); in experiment [18] it was > 10 µM (inactive).
In the case of `CC(C)C(NC(=O)OCC1c2ccccc2-c2ccccc21)C(=O)NC(CCC(=O)OC(C)(C)C)C(=O)OC(C)(C)C` (stereo not drawn) (Fmoc-Val-Glu(OtBu)-OtBu; configuration not given here), the GI50 in experiment [1] is > 100 µM (inactive); in experiment [2], 23.9 µM (inactive); in experiment [3], 8.38 µM (inactive); in experiment [4], 24.1 µM (inactive); in experiment [5], over 100 µM; in experiment [6], 4.42 µM (inactive). Besides, the GI50 in [20] was 58.5 µM (inactive); in experiment [8], > 20.5 µM (inactive); in experiment [9] it was > 100 µM (inactive); in experiment [10], > 100 µM (inactive); in experiment [11], 12.8 µM (inactive); in [12], > 20 µM (inactive). For the same molecule, the GI50 in [13] is > 100 µM (inactive); in experiment [14], > 100 µM (inactive); in experiment [15], > 46.9 µM (inactive); in [16] it was > 100 µM (inactive); in [17] it was > 76.9 µM (inactive); in experiment [18] it was > 100 µM (inactive). In addition, in [19], the GI50 was 4.14 µM (inactive).
